Source: patent publication US11590117B2, “Treatment of a hematologic malignancy with 2-(4-chlorophenyl)-n-((2-(2,6-dioxopiperidin-3-yl)-1-oxoisoindolin-5-yl)methyl)-2,2-difluoroacetamide” (priority 2016, dated 2023)
Read-outs that look alike come from different tables or passages of the source.

Tests used:
Type in all cases: cell-based
GDM-1 = assay: IncuCyte Kinetic Caspase-3/7 Apoptosis Assay; details: Homo sapiens, read-out: Compound 1-induced Apoptosis EC50
Excerpt: (§1) Methods. Acute Myeloid Leukemia Cell Line Panel: Human AML cell lines, AML-193, F36-P, GDM-1, HL-60, HNT-34, Kasumi-1, Kasumi-3, KG-1, KG-1a, ML-2, MOLM-13, MUTZ-8, MV-4-11, NOMO-1, OCI-AML2, OCI-AML3, SIG-M5, TF-1, THP-1, and UT-7 were obtained from American Type Culture Collection (ATCC; Manassas, Va.) and Deutsche Sammlung von Mikroorganismen und Zellkulturen (DSMZ) (Germany) cell banks. The AML panel includes cell line(s) from each FAB classification (M0-M7) (Table 7).
(§2) Cell Culture Conditions: Cell lines were maintained in growth media containing 20% fetal bovine serum (FBS) (Hyclone Cat no. SH30910.03, Lot no. AZF188864; Corning REFno. 35-010-CV, Lot no. 35010124) supplemented with or without 10 ng/mL human recombinant granulocyte-macrophage colony stimulating factor (Sigma-Aldrich Cat no. SRP3050) (Table 8). Medium was purchased from ATCC (Cat no. 30-2001, 30-2002, 30-2003, 30-2005) and Gibco (REF no. 12561-056). Human recombinant granulocyte macrophage colony stimulating factor (GM-CSF) was expressed in Escherichia coli. The cell doubling times for each cell line were provided by ATCC and DSMZ. Cells were maintained in humidified incubators at 5% carbon dioxide (CO2). All cell lines were acclimated to Eagle's minimal essential medium (EMEM)+20% FBS with or without GM-CSF over 2 to 4 weeks prior to live cell imaging using IncuCyte Zoom (Essen Biosciences). The use of EMEM was necessary to eliminate background fluorescence caused by riboflavin in most media.
(§3) Incubation of Cell Cultures with Compound 1: Compound 1 was provided for studies by Celgene chemistry group at a stock concentration of 30 mM in 20 μL dimethyl sulfoxide (DMSO) frozen. Costar 96-well cell culture plates (Corning Cat no. 3595) were coated with 100 μL of 10 µg/mL fibronectin (Sigma-Aldrich Cat no. F1141) for 4 hours at 37° C. and immediately used or refrigerated overnight for later use. Cells (3000 to 6000 cells) were plated in growth medi in fibronectin-coated 96-well plates and incubated for a minimum of a few hours to overnight. Cells were incubated with a 12-point concentration response in triplicate with Compound 1 ([…]) including DMSO and Media controls. A 3-fold serial dilution of Compound 1 starting from a concentration of 200 μM in 0.6% DMSO (diluted in Media) was performed. For most sensitive cell lines, a 3-fold serial dilution of Compound 1 starting from a concentration of 20 μM in 0.6% DMSO (diluted in media) was performed. A volume of 5 μL or 10 μL for each dilution was added to 100 μL or 200 μL cells, respectively (0.3% DMSO final) and incubated for live cell imaging.
(§4) Live Cell Imaging on IncuCyte Zoom: Following incubation of cells with Compound 1, diluted Caspase 3/7 reagent (Essen Biosciences Cat no. 4440) is added to each well. The Caspase-3/7 reagent couples the activated caspase-3/7 recognition motif (DEVD) to NucView™488, a DNA intercalating dye. The cleavage of substrate by activated caspase-3/7 results in the release of the DNA dye and green fluorescent staining of nuclear DNA. This allows imaging of cells undergoing caspase-3/7 mediated apoptosis over time. Caspase-3/7 activation was quantified using the IncuCyte™ ZOOM basic analyzer. Red-labeled cell lines were also imaged over time using the IncuCyte™ ZOOM basic analyzer, for determination of both cell doubling time and Compound 1 effect on cell viability. Experiments were performed at least two times in each cell line.
(§5) Next, a 4 parameter log-logistic model was used to determine relative EC50 at each time point by the ‘drm’ function from the R ‘drc’ package (Ritz C, Streibig J C. Bioassay Analysis using R. J. Statist. Software 2005; 12(5):1-22). Goodness of fit was measured by R squared (coefficient of determination or the amount of variation explained by the model fit) of ≥80%, and EC50 parameter was assessed by having a ratio of standard error to the parameter of ≤40%, and the presence of at least one concentration point above and below the reported EC50. […]

THP-1 = assay: IncuCyte Kinetic Caspase-3/7 Apoptosis Assay; details: Homo sapiens
Excerpt: as §1, §2, §3, §4, §5

ML-2 = assay: IncuCyte Kinetic Caspase-3/7 Apoptosis Assay; details: Homo sapiens, read-out: Compound 1-induced Apoptosis EC50
Excerpt: as §1, §2, §3, §4, §5

F36-P = assay: IncuCyte Kinetic Caspase-3/7 Apoptosis Assay; details: Homo sapiens, read-out: Compound 1-induced Apoptosis EC50
Excerpt: as §1, §2, §3, §4, §5

UT-7 = assay: IncuCyte Kinetic Caspase-3/7 Apoptosis Assay; details: Homo sapiens, read-out: Compound 1-induced Apoptosis EC50
Excerpt: as §1, §2, §3, §4, §5

KG-1 = assay: IncuCyte Kinetic Caspase-3/7 Apoptosis Assay; details: Homo sapiens, read-out: Compound 1-induced Apoptosis EC50
Excerpt: as §1, §2, §3, §4, §5

Karpas 231 = assay: CellTiter-Glo (CTG) cell proliferation assay, 72 hours; details: Homo sapiens, Acute Lymphoblastic Leukemia
Protocol: (§6) Preparation of Solutions of Test Article: Compounds were plated into black 384-well plates (Corning Inc.) to a final DMSO volume of 0.1% assuming a maximal volume of 50 μL. A 10-point dose response starting at 10 μM with a 1:3 dilution was printed in duplicate by acoustic dispense using the EDC ATS-100 platform.
(§7) Cell Proliferation Assays: The effect of Compound 1 on the proliferation/viability of the hematological cell lines (Table 1 Table, Table 2 and Table 3), THLE-2, or PBMCs was assessed after 72 hours incubation using CTG (Promega), according to manufacturer's instructions. Hematological cell lines were dispensed into compound plates by a Multidrop™ Combi Reagent Dispenser (Thermo Scientific, Waltham, Mass.) at a concentration of 0.1 to 0.3×10^6 cells per mL in a 50 μL total volume. THLE-2 cells were seeded out at 1000 cells per well in 50 μL volume and incubated for 72 hours. At 72 hours, 25 μL per well of CTG was dispensed by a Multidrop™ Combi Reagent Dispenser and adenosine triphosphate (ATP) release by viable cells was measured as relative luminescence units after 30 minutes using the Envision platform.

EB-1 = assay: as above; details: Homo sapiens, EB1, Burkitt Lymphoma
Protocol: as §6, §7

O=C1CCC(N2Cc3cc(CNC(=O)C(F)(F)c4ccc(Cl)cc4)ccc3C2=O)C(=O)N1 (centres unmarked) [Compound 1, 2-(4-chlorophenyl)-N-((2-(2,6-dioxopiperidin-3-yl)-1-oxoisoindolin-5-yl)methyl)-2,2-difluoroacetamide]
EC50 (GDM-1; 12 hr): 0.11 µM
EC50 (GDM-1; 24 hr): 0.313 µM
EC50 (GDM-1; 48 hr): 0.049 µM
EC50 (GDM-1; 72 hr): 0.033 µM
EC50 (GDM-1; 96 hr): 0.025 µM
EC50 (THP-1; 48 hours, read-out: apoptosis EC50): > 10 µM
EC50 (THP-1; 48 hours, read-out: apoptosis EC50 48hr): > 10 µM
EC50 (THP-1; all time points, read-out: apoptosis EC50): > 10 µM
EC50 (ML-2; 12 hr): 0.179 µM
EC50 (ML-2; 24 hr): 0.062 µM
EC50 (ML-2; 48 hr): 0.031 µM
EC50 (ML-2; 72 hr): 0.021 µM
EC50 (ML-2; 96 hr): 0.025 µM
EC50 (F36-P; 48 hr): 0.335 µM
EC50 (F36-P; 72 hr): 0.252 µM
EC50 (F36-P; 96 hr): 0.229 µM
EC50 (UT-7; UT7, 48 hr): 0.231 µM
EC50 (UT-7; UT7, 72 hr): 0.218 µM
EC50 (UT-7; UT7, 96 hr): 0.168 µM
EC50 (KG-1; 12 hr): 0.053 µM
EC50 (KG-1; 24 hr): 0.108 µM
EC50 (KG-1; 48 hr): 0.039 µM
EC50 (KG-1; 72 hr): 0.026 µM
EC50 (KG-1; 96 hr): 0.025 µM
IC50 (Karpas 231): 0.79 µM
IC50 (EB-1): 0.0663 µM
